Assay results taken from patent publication US6013667A, “Benzenesulfonylamine compounds, process for preparing them and pharmaceutical compositions” (Adir Et Compagnie, priority 1997, dated 2000).

Legend:
Rabbit saphene vein = experiment: Non-endothelium-dependent relaxations in rabbit saphene vein; details: for IC50: Oryctolagus cuniculus, rabbit saphene vein, contraction with KCl (60 mM), read-out: 50% effective relaxant concentration (IC50)
Method: (§1) New Zealand rabbits (2.5 kg) are exsanguinated under anesthesia (pentobarbital, 30 mg/kg) and the saphene veins are rapidly removed and cut into 3-mm rings. These rings are mounted between two hooks in tanks thermostatically adjusted to 37° C., containing physiological saline (composition in mM: 118 NaCl; 25 NaHCO3; 10 glucose; 4.7 KCl; 1.25 CaCl2; 1.19 MgSO4; 1.14 KHPO4).
The physiological saline is bubbled with a mixture of 95% O2 /5% CO2. The lower hook constitutes the fixed point whereas the upper hook is connected to an isometric force sensor. The tissues are placed under a base tension of 1 gram. The pharmacological substances studied are prepared immediately before use. The drugs are dissolved in water or in dimethyl sulfoxide.
This EC50 is calculated routinely in the following way: the tension values are first converted into percentages relative to the maximum effect and these percentages are then plotted on a graph with the percentages on the Y-axis and the log (concentration) values on the X-axis. A linear regression is then carried out on the points between 10% and 90% (which corresponds to the linear part of the sigmoidal curve). The concentration corresponding to the half-maximal effect (50%) can readily be calculated using the parameters of the straight line. After washing and returning to the base line, the organ is placed in contact with the antagonist (8 different concentrations for each organ) for 20 minutes. A second effect/concentration curve is thus produced in the presence of the antagonist and the "treated" EC50 can then be calculated. This thus provides all the elements which allow the pA2 (competitive antagonism) or pD2 (non-competitive angatonism) to be calculated.
Determination of the Non-Endothelium-Dependent Relaxations in Rabbit Saphene Vein
Rabbit saphene veins are prepared and mounted as described in the above example. After stabilization, a contraction with KCl (60 mM) is induced. […] It is calculated as described in the above example.

[1] = test system: platelet aggregation induced by the TXA2 agonist, U 46619; experiment: Platelet aggregation in man (platelet-rich plasma, induced by U 46619); format: cell-based; details: human PRP, U 46619 0.3 μM, read-out: IC50, inhibition of platelet aggregation induced by U 46619
Method: Platelet aggregation in man
Venous blood is obtained from human volunteers who have not taken any aspirin for at least 14 days prior to the experiment. The blood is taken onto sodium citrate (0.109 M) (1 vol. of citrate by 9 vol. of blood). The platelet-rich plasma (PRP) is obtained after centrifugation (20° C.) at 200×g for 10 minutes. The number of platelets is, on average, 250,000 PL/mm^3. The PRP is stored at room temperature until the time of the test and is used within 2 hours of the blood being taken. The antagonists are tested according to the procedure described in Example 19, using U 46619 at a concentration of 0.3 μM.

vascular TP-receptor = experiment: Determination of the pA2 values of the antagonists towards TXA2 on rabbit saphene vein; design: species or system rabbit (New Zealand); details: rabbit saphene vein rings, 37° C., U 46619 10^-9 M to 10^-5 M, antagonist 20 minutes
Method: Determination of the pA2 Values of the Antagonists Towards TXA2 on Rabbit Saphene Vein
as §1
The physiological saline is bubbled with a mixture of 95% O2 /5% CO2. The lower hook constitutes the fixed point whereas the upper hook is connected to an isometric force sensor. The tissues are placed under a base tension of 1 gram. […]
After mounting, the preparations are left to stand for 90 minutes, with rinsing carried out every 30 minutes. After readjustment of the base tension, a contraction by a single dose of the TXA2 agonist, U 46619 at 10^-5 M, is induced in order to regularize the following contractions. […]
This EC50 is calculated routinely in the following way: the tension values are first converted into percentages relative to the maximum effect and these percentages are then plotted on a graph with the percentages on the Y-axis and the log (concentration) values on the X-axis. […] The concentration corresponding to the half-maximal effect (50%) can readily be calculated using the parameters of the straight line. […]

Row | inhibition of relaxations by guanylate cyclase inhibitor (in words) (Rabbit saphene vein; relaxations induced by the substances of the invention, ODQ) | IC50 [1] [µM] | pA2 (vascular TP-receptor) | IC50 (Rabbit saphene vein) [µM] | SMILES
1 | capable of inhibiting relaxations |  |  |  | O=c1onc2cnc3ccccc3n12 [ODQ, reference compound]
2 |  | 0.14 | 9.5 | 10 | O=C(O)CCc1c(CCO[N+](=O)[O-])ccc2c1CCC(NS(=O)(=O)c1ccc(Cl)cc1)C2 (stereo not shown) [Example 2, 3-{6-[(4-Chlorophenylsulfonyl)amino]-2-(2-nitroxyethyl)-5,6,7,8-tetrahydronaphth-1-yl}propionic acid]
3 |  | 0.14 |  |  | O=C(O)CCc1c(CO[N+](=O)[O-])ccc2c1CCC(NS(=O)(=O)c1ccc(Cl)cc1)C2 (stereo not shown) [Example 4, 3-[6-(4-Chlorophenylsulfonyl)amino-2-nitroxymethyl-5,6,7,8-tetrahydronaphth-1-yl]propionic acid]
4 |  |  | 9.8 | 7.7 | O=C(O)CCc1cc(CCO[N+](=O)[O-])cc2c1CCC(NS(=O)(=O)c1ccc(Cl)cc1)C2 (stereo not shown) [Example 6, 3-{6-[(4-Chlorophenylsulfonyl)amino]-3-(2-nitroxyethyl)-5,6,7,8-tetrahydronaphth-1-yl}propionic acid]
